System: C57BL/6J mice
Test: Scopolamine-induced amnesia in the novel object recognition (NOR) test
Assay type: in vivo
Settings: scopolamine 1.2 mg/kg i.p. alone
Method: The scopolamine-induced amnesia in the novel object recognition (NOR) test in mice is a recognized in vivo model of Alzheimer Disease (AD).
The aim of this study is to examine whether Melafenoxate (NLS-8) improves amnesia induced by scopolamine in the NOR test.
Experiments were carried out on C57BL/6J mice.
In a first step of the experiment, NLS-8 was tested at 25, 50 and 100 mg/kg.
Animals were divided into 6 groups (N=4-10/group).
At T=0 min, they received the following treatments by intraperitoneal (i.p.) route: • Control group: vehicle. • Scopolamine group: scopolamine (1.2 mg/kg). • NLS-8 25 group: NLS-8 (25 mg/kg)+scopolamine (1.2 mg/kg). • NLS-8 50 group: NLS-8 (50 mg/kg)+scopolamine (1.2 mg/kg). • NLS-8 100 group: NLS-8 (100 mg/kg)+scopolamine (1.2 mg/kg). • NLS-8 150 group: NLS-8 (150 mg/kg)+scopolamine (1.2 mg/kg).
At T=30 min following treatment, animals were subjected to a sample trial. They were placed for a 12-min session in a circular experimental box in which two identical objects were presented (50% of animals: two brown cylindrical vials; 50% of animals: two black rectangular columns). At t=120 min following treatments, mice were subjected to a choice trial. They were placed again for a 12-min session in the same experimental box in which two different objects (a vial and a column) were presented: one of the objects (termed as familiar object) presented in the sample trial and a novel object. Exploration of the objects was recorded by an experimenter blind to treatment and unaware of which object was the novel one and which object was the familiar one.
DI(discrimination index)=100 ×(exploration time of the novel object−exploration time of the familiar object)/(exploration time of the novel object+exploration time of the familiar object). • Index of exploration: N+F=exploration time of the novel object+exploration time of the familiar object.
• Within group comparisons: DI vs. 0 (paired Student's t test). • Between group comparisons vs. the Control group and vs. the Scopo group: unpaired Student's t test.

## CN1[C@@H]2C[C@@H](OC(=O)[C@H](CO)c3ccccc3)C[C@H]1[C@@H]1O[C@@H]12 [Scopo, scopolamine, reference compound]
  discrimination index vs. 0 (within group): Not significantly different from 0
  discrimination index vs. Control group: Significantly lower
